# Assay results: paper PMC7707092, “Discovery and characterization of ORM‐11372, a novel inhibitor of the sodium‐calcium exchanger with positive inotropic activity” (British Journal of Pharmacology, 2020)
# “And” between values parts separate entries of the source, which are not always exact repeats. Identical values can stand only once. “Also recorded” adds a separate entry of the source. Like-named read-outs stand apart in the source and are kept apart here.
# Assays:
# [1] = tested on: guinea pig papillary muscle; assay: In vitro contraction dynamics in guinea pig papillary muscle; settings: 1 Hz, 37°C
# Excerpt: Guinea pigs (both sex, body weight ranging 342–565 g, Dunkin Hartley, M&B A/S, Ry, Denmark) were used in the study. The animals were housed in solid bottom polycarbonate cages (Makrolon® IV, 385 × 590 × 200 mm) with stainless steel wire mesh lids, up to three animals of same sex per cage. Autoclaved aspen chips (Tapvei Ky, Kaavi, Finland) were used as bedding. A commercially available rodent SDS FD1 (P) SQC pellet diet (Special Diet Services Ltd, Witham, England) and tap water from the public supply (Espoon vesilaitos, Espoo, Finland) were available ad libitum in polycarbonate bottles (800–1,000 ml) with plastic caps (Scanbur A/S, Ejby, Denmark).
# Guinea pigs were killed by a blow on the skull and the heart will be excised. Right ventricular papillary muscle was dissected and rinsed in ice‐cold Tyrode's solution. […]
# The signal was acquired with a validated acquisition system ACFO v1.0 (Fision Oy, Finland). The following parameters were measured: twitch tension (Tw), rest tension (RT), time to peak tension (TTP), and half relaxation time (HRT). […]
# The baseline twitch tensions were measured after a stabilization period of 20–40 min. Thereafter, vehicle (1.1% DMSO) or ORM‐11372 in Tyrode's solution was superfused into the cuvette for 15 min, and the effects were measured from the steady‐state level. […]
# [2] = biological target: T1, rat NCX 1.1 current (I NCX) (Rattus norvegicus, UniProt Q01728); assay: NCX current (I NCX), whole‐cell patch‐clamp in rat ventricular cardiomyocytes; type: cell-based
# T1 construct: In rat primary ventricular CMs, the magnitude of outward I NCX; endogenous in cells; host or cells: freshly isolated left ventricular cardiomyocytes of male Wistar rats
# Method: Rats were anaesthetized with sodium thiopental (0.1 g·kg^−1, i.p.) and injected with heparin sodium (500 IU, i.v.). Hearts were rapidly excised, mounted via the aorta on a Langendorff apparatus, and retrogradely perfused at 37°C with the Krebs–Henseleit solution for 5 min, with Krebs‐Henseleit solution (composition (in mM): 118.5 NaCl, 4 KCI, 2 CaCl2, 1 MgSO4, 1.2 NaH2PO4, 25 NaHCO3, and 11.1 glucose), pH 7.4 when saturated with a mixture of 95% O2 and 5% CO2. The perfusion of the heart was continued using Ca^2+‐free Krebs–Henseleit solution for 10 min, and completed by the addition of 0.05% collagenase (type I), 0.05% hyaluronidase, and 200‐μM CaCl2, for a further 10 min. Subsequently, the left ventricular myocardium was minced and gently agitated. Dissociated cells were stored at room temperature in a solution containing (in mM) 89 KOH, 70 glutamate, 15 taurine, 30 KCI, 10 KH2PO4,10 HEPES, 0.5 MgCl2, 11 glucose, and 0.5 EGTA, and the pH was set to 7.3 using KOH. […] One drop of the cell suspension was placed in a recording chamber and mounted on the stage of an inverted microscope (Olympus IX51, Olympus, Japan), and the individual myocytes were allowed to settle and adhere to the bottom of the chamber for at least 5 min before initiating superfusion.
# Manual patch‐clamp recordings of membrane currents (I NCX, L‐type Ca^2+ channel current [I CaL], human cardiac sodium 1.5 current [I Na], and I hERG) were undertaken using either an Axopatch 200B or Axopatch ID amplifier (Molecular Devices, USA), using the whole‐cell configuration. Cells were at least initially (except when recording I Na) perfused with an extracellular solution consisting of (in mM) 143 NaCl, 4 KCl, 1.8 CaCl2, 1.2 MgCl2, 5 glucose, and 10 HEPES (pH 7.4 with NaOH; osmolarity adjusted to 301 ± 3 mOsm). A slightly modified version was used for the rat ventricular CMs (in mM: 144 NaCl, 0.4 NaH2PO4, 4.0 KCl, 1.8 CaCl2, 0.53 MgSO4, 5.5 glucose, and 5.0 HEPES). Patch pipettes were pulled with a P‐2000 or P‐97 micropipette puller (Sutter Instruments, USA) from borosilicate glass capillaries and had resistances of between 2 and 4 MΩ when filled with any of the pipette solutions (see below). The data were filtered at 1 or 2 kHz and digitized at 10 kHz with acquisition and analysis performed by use of pClamp software (Versions 8–10; Molecular Devices; RRID:SCR_011323).
# After the establishment of the whole‐cell configuration with hiPSC‐derived CMs or rat ventricular myocytes, the extracellular solution was switched to a K^+‐free bath solution as described earlier (Hobai, Khananshvili, & Levi, 1997; Jost et al., 2013). The solution was composed of (in mM) 135 NaCl, 10 CsCl, 1 CaCl2, 1 MgCl2, 0.2 BaCl2, 0.33 NaH2PO4, 10 TEACI, 10 HEPES, and 10 glucose supplemented with 20‐μM ouabain, 50‐μM lidocaine, and 1‐μM nisoldipine or 2‐μM nitrendipine at pH 7.0 (osmolarity adjusted to 301 ± 3 mOsm). The pipette solution contained (in mM) 140 CsOH, 75 aspartic acid, 20 TEACI, 5 MgATP, 10 HEPES, 20 NaCl, 20 EGTA, and 10 CaCl2 (pH adjusted to 7.2 with CsOH; osmolarity adjusted to 290 ± 2 mOsm). The free intracellular Ca^2+ level in the patch pipette was 140 nM according to Maxchelator (RRID:SCR_000459) software (Bers, Patton, & Nuccitelli, 2010).
# The measurement of current in the K^+‐free bath solution using a ramp voltage protocol at 20‐s intervals represented the first control, after which values were measured in the presence of one or more increasing concentrations of ORM‐11372 and finally upon exposure to 10‐mM NiCl2. The voltage protocol consisted of voltage ramps (at a rate of 100 mV·s^−1) with a holding potential of […], which changed to −100 mV and then returned to −40 mV. I NCX was defined as the Ni^2+‐sensitive current value. However, for rat ventricular myocytes, the magnitude of the inward current (forward mode) was particularly small and variable. […]
compound,measurement,setting,value
Nc1cccc(-c2ccc(CNc3ccc(F)cc3)o2)c1 [ORM‐11372],half relaxation time,[1],unchanged; also recorded: did not affect
same,twitch tension,[1]; compared with vehicle,increased
same,inhibition at 0.004 µM,"[2]; 4 nM, read-out: in vitro NCX 1.1 current inhibition",34%
same,inhibition at 0.036 µM,"[2]; 36 nM, read-out: in vitro NCX 1.1 current inhibition",67%
same,inhibition at 0.092 µM,"[2]; 92 nM, read-out: in vitro NCX 1.1 current inhibition",79%
same,inhibition at 0.351 µM,"[2]; 351 nM, read-out: in vitro NCX inhibition",90%
same,IC50,"[2]; rat CMs, summarised (discussion), read-out: IC50 rat NCX 1.1 currents",10 nM
same,IC50,"[2]; rat primary ventricular CMs, read-out: IC50 outward I NCX (reverse mode)",11.3 nM and 11 nM
same,inhibition at 0.01 µM,"[2]; rat ventricular CMs, 10 nM, altered conditions to enhance inward current, n=3, read-out: inhibition of inward I NCX (forward mode)",53.8 ± 3.9%
